Source: ChEMBL document CHEMBL1201862, “PubChem BioAssay data set” (2004)
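Protocol summary: plate cells (96-well), add compound at 5 concentrations, incubate 48 h, interpolate endpoints linearly. Abbreviation: GI50, concentration required for 50% inhibition of growth.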 The source made the active and inactive calls. No stated cut-off is given here; in the data, active = GI50 up to about 1.1 µM and inactive = higher.

What was measured:
Experiment in all cases: NCI-60 cell line screen, 48 h
786-0 = test system: 786-0
A498 = test system: A498
A549 = test system: A549
ACHN = test system: ACHN
BT-549 = test system: BT-549
CAKI-1 = test system: CAKI-1
CCRF-CEM = test system: CCRF-CEM
COLO 205 = test system: COLO 205
DU-145 = test system: DU-145
EKVX = test system: EKVX
HCC 2998 = test system: HCC 2998
HCT-116 = test system: HCT-116
HCT-15 = test system: HCT-15
HL-60 = test system: HL-60
HOP-62 = test system: HOP-62
HOP-92 = test system: HOP-92
HT-29 = test system: HT-29
Hs-578T = test system: Hs-578T
IGROV-1 = test system: IGROV-1
K562 = test system: K562
KM12 = test system: KM12
LOX IMVI = test system: LOX IMVI
M14 = test system: M14
MCF7 = test system: MCF7
MDA-MB-231 = test system: MDA-MB-231
MDA-MB-435 = test system: MDA-MB-435
MDA-N = test system: MDA-N
MOLT-4 = test system: MOLT-4
Malme-3M = test system: Malme-3M
NCI-H226 = test system: NCI-H226
NCI-H23 = test system: NCI-H23
NCI-H460 = test system: NCI-H460
NCI-H522 = test system: NCI-H522
NCI/ADR-RES = test system: NCI/ADR-RES
OVCAR-3 = test system: OVCAR-3
OVCAR-4 = test system: OVCAR-4
OVCAR-5 = test system: OVCAR-5
OVCAR-8 = test system: OVCAR-8
PC-3 = test system: PC-3
RPMI-8226 = test system: RPMI-8226
RXF 393 = test system: RXF 393
SF-268 = test system: SF-268
SF-295 = test system: SF-295
SF-539 = test system: SF-539
SK-MEL-28 = test system: SK-MEL-28
SK-MEL-2 = test system: SK-MEL-2
SK-MEL-5 = test system: SK-MEL-5
SK-OV-3 = test system: SK-OV-3
SN12C = test system: SN12C
SNB-19 = test system: SNB-19
SNB-75 = test system: SNB-75
SR = test system: SR
SW-620 = test system: SW-620
T47D = test system: T47D
TK-10 = test system: TK-10
U-251 = test system: U-251
UACC-257 = test system: UACC-257
UACC-62 = test system: UACC-62
UO-31 = test system: UO-31

Question: CC(C)(C)OC(=O)N1CCCC1C(=O)NC(c1ccccc1)c1ccccc1 (centres undefined) was tested. Which GI50 (786-0) did it give?
Answer: Its GI50 is > 100 µM (inactive).

Question: What about the GI50 (A498) of the same molecule?
Answer: Its GI50 is > 100 µM (inactive).

Question: What about the GI50 (A549) of the same molecule?
Answer: Its GI50 is > 100 µM (inactive).

Question: What about the GI50 (ACHN) of the same molecule?
Answer: Its GI50 is > 100 µM (inactive).

Question: What about the GI50 (BT-549) of the same molecule?
Answer: The GI50 was > 100 µM (inactive).

Question: What about the GI50 (CAKI-1) of the same molecule?
Answer: Its GI50 is > 100 µM (inactive).

Question: And the GI50 (CCRF-CEM)?
Answer: Its GI50 is > 100 µM (inactive).

Question: And the GI50 (COLO 205)?
Answer: The GI50 was > 100 µM (inactive).

Question: And the GI50 (DU-145)?
Answer: Its GI50 is > 100 µM (inactive).

Question: And the GI50 (EKVX)?
Answer: The GI50 was > 100 µM (inactive).

Question: And the GI50 (HCC 2998)?
Answer: Its GI50 is > 100 µM (inactive).

Question: What about the GI50 (HCT-116) of the same molecule?
Answer: The GI50 was > 100 µM (inactive).

Question: What about the GI50 (HCT-15) of the same molecule?
Answer: The GI50 was over 100 µM.

Question: What about the GI50 (HL-60) of the same molecule?
Answer: The GI50 was > 100 µM (inactive).

Question: And the GI50 (HOP-62)?
Answer: The GI50 was > 100 µM (inactive).

Question: And the GI50 (HOP-92)?
Answer: Its GI50 is > 100 µM (inactive).

Question: And the GI50 (HT-29)?
Answer: The GI50 was > 100 µM (inactive).

Question: What about the GI50 (Hs-578T) of the same molecule?
Answer: The GI50 was > 100 µM (inactive).

Question: What about the GI50 (IGROV-1) of the same molecule?
Answer: The GI50 was > 100 µM (inactive).

Question: What about the GI50 (K562) of the same molecule?
Answer: The GI50 was > 100 µM (inactive).

Question: What about the GI50 (KM12) of the same molecule?
Answer: Its GI50 is > 100 µM (inactive).

Question: What about the GI50 (LOX IMVI) of the same molecule?
Answer: The GI50 was > 100 µM (inactive).

Question: What about the GI50 (M14) of the same molecule?
Answer: Its GI50 is > 100 µM (inactive).

Question: What about the GI50 (MCF7) of the same molecule?
Answer: The GI50 was > 100 µM (inactive).

Question: What about the GI50 (MDA-MB-231) of the same molecule?
Answer: The GI50 was > 100 µM (inactive).

Question: What about the GI50 (MDA-MB-435) of the same molecule?
Answer: Its GI50 is > 100 µM (inactive).

Question: And the GI50 (MDA-N)?
Answer: The GI50 was > 100 µM (inactive).

Question: And the GI50 (MOLT-4)?
Answer: The GI50 was > 100 µM (inactive).

Question: And the GI50 (Malme-3M)?
Answer: The GI50 was > 100 µM (inactive).

Question: And the GI50 (NCI-H226)?
Answer: Its GI50 is > 100 µM (inactive).

Question: And the GI50 (NCI-H23)?
Answer: The GI50 was > 100 µM (inactive).

Question: And the GI50 (NCI-H460)?
Answer: The GI50 was > 100 µM (inactive).

Question: And the GI50 (NCI-H522)?
Answer: The GI50 was > 100 µM (inactive).

Question: What about the GI50 (NCI/ADR-RES) of the same molecule?
Answer: Its GI50 is > 100 µM (inactive).

Question: What about the GI50 (OVCAR-3) of the same molecule?
Answer: The GI50 was > 100 µM (inactive).

Question: And the GI50 (OVCAR-4)?
Answer: The GI50 was > 100 µM (inactive).

Question: What about the GI50 (OVCAR-5) of the same molecule?
Answer: The GI50 was > 100 µM (inactive).

Question: What about the GI50 (OVCAR-8) of the same molecule?
Answer: Its GI50 is > 100 µM (inactive).

Question: What about the GI50 (PC-3) of the same molecule?
Answer: Its GI50 is > 100 µM (inactive).

Question: And the GI50 (RPMI-8226)?
Answer: Its GI50 is > 100 µM (inactive).

Question: What about the GI50 (RXF 393) of the same molecule?
Answer: Its GI50 is > 100 µM (inactive).

Question: And the GI50 (SF-268)?
Answer: Its GI50 is > 100 µM (inactive).

Question: What about the GI50 (SF-295) of the same molecule?
Answer: The GI50 was > 100 µM (inactive).

Question: What about the GI50 (SF-539) of the same molecule?
Answer: Its GI50 is > 100 µM (inactive).

Question: What about the GI50 (SK-MEL-28) of the same molecule?
Answer: Its GI50 is > 100 µM (inactive).

Question: And the GI50 (SK-MEL-2)?
Answer: The GI50 was > 100 µM (inactive).

Question: What about the GI50 (SK-MEL-5) of the same molecule?
Answer: Its GI50 is > 100 µM (inactive).

Question: And the GI50 (SK-OV-3)?
Answer: Its GI50 is > 100 µM (inactive).

Question: And the GI50 (SN12C)?
Answer: The GI50 was > 100 µM (inactive).

Question: And the GI50 (SNB-19)?
Answer: The GI50 was > 100 µM (inactive).

Question: And the GI50 (SNB-75)?
Answer: Its GI50 is > 100 µM (inactive).

Question: What about the GI50 (SR) of the same molecule?
Answer: Its GI50 is > 100 µM (inactive).

Question: What about the GI50 (SW-620) of the same molecule?
Answer: The GI50 was > 100 µM (inactive).

Question: What about the GI50 (T47D) of the same molecule?
Answer: Its GI50 is > 100 µM (inactive).

Question: And the GI50 (TK-10)?
Answer: The GI50 was > 100 µM (inactive).

Question: What about the GI50 (U-251) of the same molecule?
Answer: The GI50 was > 100 µM (inactive).

Question: And the GI50 (UACC-257)?
Answer: Its GI50 is > 100 µM (inactive).

Question: And the GI50 (UACC-62)?
Answer: Its GI50 is > 100 µM (inactive).

Question: What about the GI50 (UO-31) of the same molecule?
Answer: The GI50 was > 100 µM (inactive).
